Measured values taken from publication PMC6856409 (Journal of medicinal chemistry, 2019).

What was measured:
NLRC4 inflammasome = NLRC4 inflammasome selectivity assay, J774A.1 cells, LPS/flagellin, IL-1β ELISA; format: cell-based, murine; settings: 10 μM compound, LPS (1 μg/mL) 1 h, flagellin (1 μg/mL) 6 h
AIM2 inflammasome = AIM2 inflammasome selectivity assay, J774A.1 cells, LPS/poly; format: cell-based, murine; settings: 10 μM compound, LPS (1 μg/mL) 1 h, poly(dA:dT) (4 μg/ml) 8 h
hCMEC/D3 cells = test: Cytotoxicity on hCMEC/D3 cells; settings: 20 μM, 2 h
NLRP3 inflammasome = test: IL-1β release from mouse peritoneal macrophages upon LPS/ATP challenge; format: cell-based

| SMILES | effect on IL-1β production by NLRC4 inflammasome (NLRC4 inflammasome) | effect on IL-1β production by AIM2 inflammasome (AIM2 inflammasome) | cytotoxicity (cell viability) (hCMEC/D3 cells) | inhibitory activity on IL-1β release (NLRP3 inflammasome) |
| --- | --- | --- | --- | --- |
| C#CCNS(=O)(=O)c1ccc(CCN(Cc2cc(Cl)ccc2OCCC)C(=O)Cc2ccsc2)cc1 [Compound 17, N-(5-chloro-2-propoxybenzyl)-N-(4-(N-(prop-2-yn-1-yl)sulfamoyl)phenethyl)-2-(thio-phen-3-yl)acetamide] | did not significantly interfere | did not significantly interfere | did not show significant toxic effects |  |
| C#CCNS(=O)(=O)c1ccc(CCN(Cc2cc(Cl)ccc2OC)C(=O)C=C)cc1 [Compound 2, N-(5-chloro-2-methoxybenzyl)-N-(4-(N-(prop-2-yn-1-yl)sulfamoyl)phenethyl)acryl-amide] | significantly inhibited | significantly inhibited |  | confirmed |
